Measured values as given in BindingDB's records for patent US10988451 (Gilead Sciences, 2021).

target: T1, Induced myeloid leukemia cell differentiation protein Mcl-1 [171-327] (Homo sapiens, UniProt Q07820); experiment: AlphaLISA Assay
T1 construct: 171-327
Procedure: The AlphaLISA assay was performed in a 384-well Proxiplate in a total volume of […]. The reaction mixture contained 0.0625 nM 6× His-Mcl-1 (171-327), 0.0625 nM biotinylated-Bim peptide, 10 μg/mL AlphaLISA anti-6×His-AlphaLISA acceptor beads, 40 μg/mL AlphaScreen streptavidin donor beads, and serially diluted test compounds in the binding buffer (20 mM Hepes, pH 7.5 (Teknova H1035); 150 mM NaCl (Promega V4221); 0.002% Brij 35 (Thermo Scientific 20150); 1 mM Dithiothreitol (DTT) Solution (Affymetrix 70726); 0.01% BSA (BioLabs B9000S)). 1,000× test compounds were pre-spotted onto 384-well Proxiplate (Labcyte Echo) by Echo 555 Liquid Handler (Labcyte Inc., San Jose, Calif.) followed by incubation of 5 μl Mcl-1(171-327) for 1 hour. Then 5 μL Bim (51-76) was added and incubated for 2 hours. Five μL AlphaLISA anti-6His-AlphaLISA acceptor beads were then added for 1 hour followed by addition of 5 μL AlphaScreen streptavidin donor beads for 1 hour. The reaction plates were then read on an Envision multimode reader (PerkinElmer) using AlphaScreen settings.

T1 sequence (Q07820 171-327): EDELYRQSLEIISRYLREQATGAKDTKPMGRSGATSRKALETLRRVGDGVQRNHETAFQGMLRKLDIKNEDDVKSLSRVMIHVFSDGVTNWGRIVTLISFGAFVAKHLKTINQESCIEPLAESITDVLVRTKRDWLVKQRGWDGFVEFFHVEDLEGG

IC50 [nM]	Structure (SMILES)
0.03	C[C@@H]1[C@@H](C)C/C=C/[C@H](O)[C@@H]2CC[C@H]2CN2C[C@@]3(CCCc4cc(Cl)ccc43)COc3ccc(cc32)C(=O)N=[S@]1(=O)NC(=O)c1cc2n(c1)C[C@H](CN1CCN3CCOC[C@H]3C1)OC2 [US10988451, Example 229]
0.153	CO[C@H]1/C=C/C[C@H](C)C[S@@](=O)(NC(=O)c2cc3n(c2F)CCOC3)=NC(=O)c2ccc3c(c2)N(C[C@@H]2CC[C@H]21)C[C@@]1(CCCc2cc(Cl)ccc21)CO3 [US10988451, Example 174]
0.121	CO[C@H]1/C=C/C[C@H](C)C[S@@](=O)(NC(=O)C2CC(OC(F)F)C2)=NC(=O)c2ccc3c(c2)N(C[C@@H]2CC[C@H]21)C[C@@]1(CCCc2cc(Cl)ccc21)CO3 (stereo partly drawn) [US10988451, Example 431]
